Experimental data reported in PMC5234788 (PLoS ONE, 2017).
Where “and” joins values, the source holds several entries; their conditions need not be identical. Equal entries are not always repeated.

How the values were obtained:
Dopamine, D1 (h) = tested on: T1, Dopamine, D1 (h); test: Radio-ligand binding assay, Dopamine D1; parameters: species or system human; conditions: 10 μM l-THBr
T1 construct: Caliper Lifescience
Procedure: (§1) To determine the possible targets of l-THBr action, the binding affinities of l-THBr to neurotransmitter receptors known to be involved in sedation, hypnosis and anxiety were investigated. Radio-ligand binding assays were performed by Caliper Lifescience (Hopkinton, MA, USA). The screening was carried out at a concentration of 10 μM l–THBr to test its ability to inhibit the binding of radioligands to their corresponding receptors. The results were expressed as percentage of inhibition of labeled ligand binding to individual receptors. Significant binding activity was defined as ≥50%.

Dopamine, D2s (h) = tested on: T2, Dopamine, D2s (h); test: Radio-ligand binding assay, Dopamine D2s; parameters: species or system human; conditions: 10 μM l-THBr
T2 construct: Caliper Lifescience
Procedure: as §1

Dopamine, D4.4 (h) = tested on: T3, Dopamine, D4.4 (h); test: Radio-ligand binding assay, Dopamine D4.4; parameters: species or system human; conditions: 10 μM l-THBr
T3 construct: Caliper Lifescience
Procedure: as §1

[1] = tested on: T4, GABA A, BDZ, Alpha 1 site; test: Radio-ligand binding assay, GABA A BDZ alpha 1 site; conditions: 10 μM l-THBr; radioligand [3H]Flunitrazepam
T4 construct: Caliper Lifescience
Procedure: as §1

[2] = tested on: Glutamate, MK-801 (Ionotropic); test: Radio-ligand binding assay, Glutamate MK-801; conditions: 10 μM l-THBr; radioligand [3H] MK-801
Procedure: as §1

Serotonin Transporter = tested on: T5, Serotonin Transporter; test: Radio-ligand binding assay, Serotonin Transporter; conditions: 10 μM l-THBr; radioligand [3H]Citalopram,N-Methyl
T5 construct: Caliper Lifescience
Procedure: as §1

Serotonin, 5HT1D = tested on: T6, Serotonin, 5HT1D; test: Radio-ligand binding assay, Serotonin 5HT1D; conditions: 10 μM l-THBr; radioligand [3H]5-CT
T6 construct: Caliper Lifescience
Procedure: as §1

Serotonin, 5HT2A = tested on: T7, Serotonin, 5HT2A; test: Radio-ligand binding assay, Serotonin 5HT2A; conditions: 10 μM l-THBr; radioligand [3H]Ketanserin
T7 construct: Caliper Lifescience
Procedure: as §1

Serotonin, 5HT5A (h) = tested on: T8, Serotonin, 5HT5A (h); test: Radio-ligand binding assay, Serotonin 5HT5A; parameters: species or system human; conditions: 10 μM l-THBr; radioligand [3H]-LSD
T8 construct: Caliper Lifescience
Procedure: as §1

D1 receptor = D1 receptor (Homo sapiens, UniProt P21728); test: cAMP assay for D1 receptor activity in CHO cells; assay type: cell-based
Chain of D1 receptor (P21728 whole entry): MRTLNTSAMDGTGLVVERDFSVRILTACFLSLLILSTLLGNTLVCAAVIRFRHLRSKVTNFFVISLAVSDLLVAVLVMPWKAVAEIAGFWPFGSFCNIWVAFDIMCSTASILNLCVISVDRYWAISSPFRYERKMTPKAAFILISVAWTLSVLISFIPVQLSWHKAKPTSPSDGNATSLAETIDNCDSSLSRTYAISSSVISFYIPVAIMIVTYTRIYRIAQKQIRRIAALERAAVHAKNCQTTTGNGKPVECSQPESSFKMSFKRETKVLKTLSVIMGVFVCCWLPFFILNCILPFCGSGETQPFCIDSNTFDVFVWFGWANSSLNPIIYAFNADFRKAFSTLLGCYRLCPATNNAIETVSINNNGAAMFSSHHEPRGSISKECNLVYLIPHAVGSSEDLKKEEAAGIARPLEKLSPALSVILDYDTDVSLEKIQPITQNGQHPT
Text: Dopamine receptors can be categorized into two classes: Gαs protein coupled receptors (D1 and D5), or Gαi protein coupled receptors (D2, D3, and D4). Activation of D1 receptors can excite adenylate cyclase activity and increase cyclic adenosine monophosphate (cAMP). cAMP assays were used to determine the agonist or antagonist properties of l-THBr at the dopamine D1 receptor.
CHO K1 cells stably expressing D1 receptors were purchased from Genscript (Catalogue Number: M00247, Gene Number NM_000794). The cells were seeded in Ham’s F12 containing 10% fetal bovine serum and 200 μg/ml zeocin. On the day of the assay, 5 μl of cell suspension (3000 cells) was seeded on a 384-well plate. The assay was performed according to the manufacturer’s instructions. To test for agonist effects at the D1 receptor, the compounds (a known D1 agonist […] or l-THBr) were added from stocks two-fold more concentrated than the final concentration. […] After incubation (30 min at room temperature), 10 μL of HTRF reagents (cAMP-XL665 and anti-cAMP cryptate) were added. The signal was quantified after one hour of incubation at room temperature. The fluorescence intensity ratio (A665nm/A620nm x10^4) was calculated.

male CD-1 ICR mice = test: Elevated plus-maze test; assay type: in vivo
Text: The elevated plus-maze test is widely used for the screening and evaluation of anxiolytic drugs. The apparatus consists of two open arms (30 cm × 5 cm) and two enclosed arms (30 cm × 5 cm × 15 cm), which is elevated 45 cm above the ground. The entire maze was made of clear Plexiglas and illuminated by four 30 W white lights with 300 lx light intensity arranged as a cross 100 cm above the maze. 48 male CD-1 ICR mice were randomly divided into either the vehicle group, one of three doses of l–THBr groups, or the diazepam group. 30 min after injection, mice were gently placed on the center platform facing an open arm, and the number of entries and the time spent in both arms were recorded by a video camera for 5 min. The results were expressed as the percentage of entries into the open arms (%) = (the number of entries into the open arms / the total number of entries into the four arms) × 100%; and the percentage of time spent in the open arms (%) = (time spent in the open arms / total time spent in the four arms) × 100%.
In a separate experiment, WAY100635 (a 5-HT1A antagonist) was used to test whether the anxiolytic-like activity of l-THBr is mediated by the activation of the 5-HT1A receptor. Forty male CD-1 ICR mice were randomly divided into one of four groups: vehicle, WAY100635 (3 mg/kg, i.p.), l–THBr (5 mg/kg, i.p.) or WAY100635 (3 mg/kg, i.p.) + l–THBr (5 mg/kg, i.p.). Mice were administered vehicle or WAY100635 followed by vehicle or l–THBr (5 mg/kg) injections 15 min later. The test was performed 30 min after the administration of l-THBr or vehicle.

[3] = l-THBr 1 or 5 mg/kg, i.p., P < 0.05 vs control

**Q.** Which Activity (Dopamine, D1 (h)) does the source give for COc1ccc2c(c1O)CN1CCc3cc4c(cc3[C@@H]1C2)OCO4 [l-THBr, levo-tetrahydroberberrubine] here?
**A.** Its Activity is “Yes (Significant binding affinity of l-THBr was defined as greater than 50% inhibition of ligand binding)”.

**Q.** And the Average inhibition percentage (Dopamine, D1 (h); radioligand [3H]-SCH23390)?
**A.** Its Average inhibition percentage is 100.6% and 100.61%.

**Q.** And the Activity (Dopamine, D2s (h))?
**A.** The Activity was “Yes (Significant binding affinity of l-THBr was defined as greater than 50% inhibition of ligand binding)”.

**Q.** And the Average inhibition percentage (Dopamine, D2s (h); radioligand [3H]-Raclopride)?
**A.** Its Average inhibition percentage is 98.41% and 96.43%.

**Q.** And the Activity (Dopamine, D4.4 (h))?
**A.** Its Activity is “Yes (Significant binding affinity of l-THBr was defined as greater than 50% inhibition of ligand binding)”.

**Q.** What about the Average inhibition percentage (Dopamine, D4.4 (h); radioligand [3H]-YM-09151-2) of the same molecule?
**A.** Its Average inhibition percentage is 79.55%.

**Q.** What about the Average inhibition percentage [1] of the same molecule?
**A.** Its Average inhibition percentage is -3.30%.

**Q.** And the Average inhibition percentage [2]?
**A.** The Average inhibition percentage was 6.41%.

**Q.** What about the Average inhibition percentage (Serotonin Transporter) of the same molecule?
**A.** The Average inhibition percentage was 34.43%.

**Q.** And the Average inhibition percentage (Serotonin, 5HT1D)?
**A.** Its Average inhibition percentage is 42.28%.

**Q.** What about the Average inhibition percentage (Serotonin, 5HT2A) of the same molecule?
**A.** Its Average inhibition percentage is 40.90%.

**Q.** And the Average inhibition percentage (Serotonin, 5HT5A (h))?
**A.** The Average inhibition percentage was 23.79%.

**Q.** What about the IC50 (D1 receptor) of the same molecule?
**A.** Its IC50 is 0.361 µM.

**Q.** What about the “dose-dependent increase in cAMP production (agonist effect)” value (D1 receptor; CHO cells stably expressing the D1 receptor, agonist test) of the same molecule?
**A.** The value was “but not l-THBr induced a dose-dependent increase”.

**Q.** And the inhibition at 10 µM (D1 receptor; CHO, read-out: maximum inhibition of cAMP production)?
**A.** The inhibition at 10 µM was 98.8%.

**Q.** And the “anxiolytic-like effects (open arm entries and time) on co-administration of 5-HT1A antagonist WAY100635” value (male CD-1 ICR mice; l-THBr 5 mg/kg i.p. + WAY100635 3 mg/kg i.p. given 15 min earlier)?
**A.** The value was “significantly reversed”.

**Q.** And the “ratio of entries into the open arms” value (male CD-1 ICR mice; [3])?
**A.** Its value is “increased”.

**Q.** And the “ratio of time spent in the open arms” value (male CD-1 ICR mice; [3])?
**A.** The value was “increased”.
